From ChEMBL document CHEMBL1201862, “PubChem BioAssay data set” (2004)
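In this assay, cells in 96-well plates receive the compound at five concentrations for 48 hours. Endpoints are linearly interpolated between the surrounding concentrations. At the GI50, growth is halved.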 Active and inactive are the calls of the source. No stated cut-off is given here; in the data, active = GI50 up to about 1.1 µM and inactive = higher.

Legend:
Assay in all cases: NCI anticancer screen, dose series, 48 h
NCI/ADR-RES = system: NCI/ADR-RES
SK-OV-3 = system: SK-OV-3
K562 = system: K562
A498 = system: A498
UACC-257 = system: UACC-257
HCT-15 = system: HCT-15
BT-549 = system: BT-549
HOP-92 = system: HOP-92
NCI-H23 = system: NCI-H23
HCC 2998 = system: HCC 2998
HCT-116 = system: HCT-116
LOX IMVI = system: LOX IMVI
OVCAR-5 = system: OVCAR-5
SNB-19 = system: SNB-19
SN12C = system: SN12C
786-0 = system: 786-0
RXF 393 = system: RXF 393

Row | SMILES | GI50 (NCI/ADR-RES) | GI50 (SK-OV-3) | GI50 (K562) | GI50 (A498) | GI50 (UACC-257) | GI50 (HCT-15) | GI50 (BT-549) | GI50 (HOP-92) | GI50 (NCI-H23) | GI50 (HCC 2998) | GI50 (HCT-116) | GI50 (LOX IMVI) | GI50 (OVCAR-5) | GI50 (SNB-19) | GI50 (SN12C) | GI50 (786-0) | GI50 (RXF 393)
1 | O=P(O)(O)CN1CCNCCN(CP(=O)(O)O)CC1 | > 19.9 µM (inactive) | 23.7 µM (inactive) | 6.32 µM (inactive) | 33.7 µM (inactive) | > 55.3 µM (inactive) | 8.89 µM | > 100 µM (inactive) | > 34 µM (inactive) | 54.6 µM (inactive) | 12.3 µM (inactive) | 8.93 µM (inactive) | 25.9 µM (inactive) | > 42.3 µM (inactive) | > 100 µM (inactive) | > 100 µM (inactive) | 23 µM (inactive) | 28.8 µM (inactive)
2 | CC1OC(OC2C(OC(=O)[C@]34CCC(C)(C)C[C@H]3C3=CC[C@@H]5[C@@]6(C)CC[C@H](OC7OC(C(=O)O)C(O)C(O)C7O)C(C)(C)[C@@H]6CC[C@@]5(C)[C@]3(C)C[C@H]4O)OCC(O)C2O)C(O)C(OC2OCC(O)(CO)C2O)C1OC1OCC(O)C(O)C1O (some centres undefined) | 13.3 µM (inactive) | 15.6 µM (inactive) | 10.3 µM (inactive) | 1.83 µM (inactive) | 11.1 µM (inactive) | 16.4 µM | 5.42 µM (inactive) | 12.1 µM (inactive) | 2.59 µM (inactive) | 1.81 µM (inactive) | 7.19 µM (inactive) | 13.7 µM (inactive) | 10.8 µM (inactive) | 11 µM (inactive) | 3.37 µM (inactive) | 12.1 µM (inactive) | 15.2 µM (inactive)
3 | O=C(Nc1ccc2nc(-c3ccccc3)cn2c1)Oc1ccccc1 | 33.8 µM (inactive) | > 100 µM (inactive) | 34.6 µM (inactive) | 71.3 µM (inactive) | 36.1 µM (inactive) | 45.1 µM | > 100 µM (inactive) | > 100 µM (inactive) | 99.1 µM (inactive) | 25.2 µM (inactive) | 45.9 µM (inactive) | 52 µM (inactive) | 78.2 µM (inactive) | 73.6 µM (inactive) | 66.8 µM (inactive) | 91 µM (inactive) | 0.893 µM (active)
4 | CC(C)C(=O)C(C)(C)CCc1ccccn1 | > 100 µM (inactive) | > 100 µM (inactive) | > 100 µM (inactive) | > 100 µM (inactive) | > 100 µM (inactive) | > 100 µM | > 100 µM (inactive) | > 100 µM (inactive) | > 100 µM (inactive) | > 100 µM (inactive) | > 100 µM (inactive) | > 100 µM (inactive) | > 100 µM (inactive) | > 100 µM (inactive) | > 100 µM (inactive) | > 100 µM (inactive) | > 100 µM (inactive)
5 | CN(C)C(=O)C(F)(F)C(c1ccc(F)cc1)C1C(=O)N(C)C(=O)N(C)C1=O (centres undefined) | > 100 µM (inactive) | > 100 µM (inactive) | – | > 100 µM (inactive) | > 100 µM (inactive) | > 100 µM | > 100 µM (inactive) | > 100 µM (inactive) | > 100 µM (inactive) | > 100 µM (inactive) | > 100 µM (inactive) | > 100 µM (inactive) | > 100 µM (inactive) | > 100 µM (inactive) | – | > 100 µM (inactive) | > 100 µM (inactive)
6 | COc1cc(OC)cc(C(=O)NC2=C(Cl)C(=O)c3ccccc3C2=O)c1 | 2.28 µM (inactive) | 2.49 µM (inactive) | 0.798 µM (active) | 14.1 µM (inactive) | 1.99 µM (inactive) | 0.94 µM | 2.27 µM (inactive) | 1.45 µM (inactive) | 2.43 µM (inactive) | 3.48 µM (inactive) | 0.668 µM (active) | 1.99 µM (inactive) | 4.92 µM (inactive) | 5.5 µM (inactive) | 3.15 µM (inactive) | 2.96 µM (inactive) | 1.04 µM (active)
7 | CCN(CC)CCNc1ccc2ncn3c4c(OC)cccc4c(=O)c1c23 | 1.79 µM (inactive) | 10.9 µM (inactive) | 2.67 µM (inactive) | 13.9 µM (inactive) | 21.1 µM (inactive) | 3.85 µM | > 10 µM (inactive) | 4.27 µM (inactive) | 5.46 µM (inactive) | 4.94 µM (inactive) | 0.54 µM (active) | – | – | 6.15 µM (inactive) | 2.93 µM (inactive) | 4.83 µM (inactive) | 2.45 µM (inactive)
8 | O=C(OCc1ccccc1CN1CCOCC1)c1cccc(Br)c1 | 26.7 µM (inactive) | > 100 µM (inactive) | 6.3 µM (inactive) | > 100 µM (inactive) | 24.6 µM (inactive) | 36.4 µM | 52.6 µM (inactive) | 43.6 µM (inactive) | 27.9 µM (inactive) | 28.3 µM (inactive) | 32.9 µM (inactive) | 31.3 µM (inactive) | 36.3 µM (inactive) | 93.1 µM (inactive) | 39.3 µM (inactive) | 74.8 µM (inactive) | 78.7 µM (inactive)
9 | c1cc(-c2cnc(-c3ccc4c(c3)CCCO4)o2)ccn1 | 17.1 µM (inactive) | 20.3 µM (inactive) | 5.05 µM (inactive) | 12.3 µM (inactive) | 15.1 µM (inactive) | 16.2 µM | 15.2 µM (inactive) | 22.9 µM (inactive) | 15.5 µM (inactive) | – | 16.7 µM (inactive) | 13.6 µM (inactive) | 13.6 µM (inactive) | 11.9 µM (inactive) | 18.5 µM (inactive) | 19.5 µM (inactive) | 13.5 µM (inactive)
10 | C=CCN1CC2CN=NC2(C#N)C1 (centres undefined) | > 100 µM (inactive) | – | > 100 µM (inactive) | > 100 µM (inactive) | > 100 µM (inactive) | > 100 µM | > 100 µM (inactive) | 2.33 µM (inactive) | > 100 µM (inactive) | > 100 µM (inactive) | > 100 µM (inactive) | > 100 µM (inactive) | > 100 µM (inactive) | > 100 µM (inactive) | > 100 µM (inactive) | > 100 µM (inactive) | > 100 µM (inactive)
11 | CC(C)NC(=O)OCc1c(COC(=O)NC(C)C)n(C)c2c1ccc1cc(Cl)c(Cl)cc12 | 15.9 µM (inactive) | 21.6 µM (inactive) | 4.44 µM (inactive) | 1.75 µM (inactive) | 15.7 µM (inactive) | 12.7 µM | 15.2 µM (inactive) | 11.4 µM (inactive) | 12.8 µM (inactive) | – | 11.7 µM (inactive) | 9.23 µM (inactive) | 15.4 µM (inactive) | 13.4 µM (inactive) | – | 7.5 µM (inactive) | 12.2 µM (inactive)
12 | COc1cc2c(/C=C3/C(=O)Nc4ccc(Cl)cc43)c(Cl)n(Cc3ccccc3)c2cc1C | 3.86 µM (inactive) | 1.74 µM (inactive) | 3.14 µM (inactive) | 2.65 µM (inactive) | 6.34 µM (inactive) | 4.01 µM | 7.85 µM (inactive) | 5.51 µM (inactive) | 2.84 µM (inactive) | – | 3.81 µM (inactive) | 3.57 µM (inactive) | 2.51 µM (inactive) | 3.1 µM (inactive) | 2.59 µM (inactive) | 2.59 µM (inactive) | 2.31 µM (inactive)
13 | COc1cccc2c1C(=O)c1ccc3cc(CO)cc(O)c3c1C2=O | 0.515 µM (active) | 2.33 µM (inactive) | 1.41 µM (inactive) | 3.52 µM (inactive) | 0.0879 µM (active) | 0.321 µM | 1.58 µM (inactive) | 0.573 µM (active) | 0.288 µM (active) | – | 0.252 µM (active) | 1.8 µM (inactive) | 2.09 µM (inactive) | 1.79 µM (inactive) | 0.748 µM (active) | 0.619 µM (active) | 1.34 µM (inactive)
14 | Cc1cc(Cl)ccc1OCC(=O)Nc1nc(N)nc(N)n1 | > 100 µM (inactive) | > 100 µM (inactive) | > 100 µM (inactive) | > 100 µM (inactive) | > 100 µM (inactive) | > 100 µM | > 100 µM (inactive) | > 100 µM (inactive) | > 100 µM (inactive) | – | > 100 µM (inactive) | > 100 µM (inactive) | > 100 µM (inactive) | > 100 µM (inactive) | > 100 µM (inactive) | > 100 µM (inactive) | > 100 µM (inactive)
15 | c1ccc2c(c1)CCN1CCc3ccccc3C1C2 (centres undefined) | 65.9 µM (inactive) | 64 µM (inactive) | 31.2 µM (inactive) | > 100 µM (inactive) | 62.4 µM (inactive) | 40.2 µM | 80.7 µM (inactive) | 31 µM (inactive) | 59.7 µM (inactive) | 31.4 µM (inactive) | 17.5 µM (inactive) | 35.1 µM (inactive) | 38.4 µM (inactive) | 82.8 µM (inactive) | 43.4 µM (inactive) | 25.1 µM (inactive) | –
16 | NCC1CCCCC1.O=C(O)NCC1CCCCC1 | 26 µM (inactive) | – | 6.28 µM (inactive) | 15 µM (inactive) | 22.2 µM (inactive) | 23.8 µM | 26.5 µM (inactive) | 3.95 µM (inactive) | 23.3 µM (inactive) | – | 27.6 µM (inactive) | 15.3 µM (inactive) | 31.9 µM (inactive) | 47.3 µM (inactive) | 12.5 µM (inactive) | 24.1 µM (inactive) | 19.1 µM (inactive)
17 | CCCCCCCCCCCCc1ccsc1-c1ccc(-c2ccc(-c3sc(-c4cc(CCCCCCCCCCCC)c(-c5ccc(-c6ccc(-c7sccc7CCCCCCCCCCCC)s6)s5)s4)cc3CCCCCCCCCCCC)s2)s1 | > 100 µM (inactive) | > 100 µM (inactive) | > 100 µM (inactive) | > 100 µM (inactive) | > 100 µM (inactive) | > 100 µM | > 100 µM (inactive) | > 100 µM (inactive) | > 100 µM (inactive) | > 100 µM (inactive) | > 100 µM (inactive) | – | > 100 µM (inactive) | > 100 µM (inactive) | > 100 µM (inactive) | > 100 µM (inactive) | 83.4 µM (inactive)
